Target: T1, HDM2 (Homo sapiens, UniProt Q00987)
T1 construct: Thioredoxin (N); made in house; host or cells: E. coli BL21(DE3)Rosetta (pET32a)
Test: HDM2 FRET assay (inhibition of p53 peptide binding to HDM2)
Details: truncated HDM2 residues 17 to 125, 0.5 nM HDM2, 3 nM FITC labeled 8-mer peptide, two hour incubation
Excerpt: Methods: An HDM2 FRET assay was developed to assess the compounds' inhibitory activity towards binding of p53 protein. A truncated version of HDM2 with residues 17 to 125 (containing p53 binding surface, Science (1994) 265, 346-355), with N-terminal His and Thioredoxin tag was generated in pET32a expression vector and expressed in E. coli strain BL21(DE3)Rosetta. Protein was purified using Ni-affinity chromatography, followed by size exclusion chromatography using Superdex 75 26/60 column. To assess inhibition of p53 binding to HDM2, a FITC labeled 8-mer peptide (sequence: Ac-Phe-Arg-Dpr-Ac6c-(6-Br)Trp-Glu-Glu-Leu-NH2; Anal Biochem. 2004 Aug. 1; 331(1):138-46) with strong affinity towards p53 binding pocket of HDM2 was used. The HDM2 assay buffer contained 1× Phosphate Buffered Saline (Invitrogen, Cat#14190), 0.01% BSA (Jackson ImmunoResearch, Cat#001-000-162), 0.01% Tween-20. In the 1× assay buffer recombinant HDM2 protein, peptide and Lumi4-Tb Cryptate-conjugate mouse anti-6×HIS antibody (cisbio, Cat#Tb61HISTLB) were added and transferred to ProxiPlate PLUS (PerkinElmer, Cat#6008269), containing compounds so that final DMSO concentration is 0.1%. Final concentrations of reagents in the assay wells are 0.5 nM HDM2, 0.25 nM anti HIS (Tb label) antibody and 3 nM peptide. After two hour incubation at room temperature in a humidified chamber plates were read on EnVision plate reader with the following settings: excitation: UV, […], two emission filters: 520 nm and 495 nm respectively. Ratio of em520/em495 was used to calculate % inhibition and to obtain IC50 with 4-parameter logistic equation.
IC50 DETERMINATIONS: Dose-response curves were plotted from the inhibition data, from 10 point serial dilutions of inhibitory compounds. Concentration of compound was plotted against em520/Cem495 ratio signal. To generate IC50 values, the dose-response curves were fitted to a standard sigmoidal curve and IC50 values were derived by nonlinear regression analysis. IC50 values in the above table are rounded to the nearest integer.

T1 sequence (Q00987 17-125): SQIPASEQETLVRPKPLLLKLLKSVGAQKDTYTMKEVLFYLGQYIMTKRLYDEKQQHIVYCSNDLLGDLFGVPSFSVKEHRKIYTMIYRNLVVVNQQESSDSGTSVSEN

C[C@@H](Nc1nc(-c2noc(=O)[nH]2)nc2ncn(CC3CCC4(CC3)CC4)c12)C1CCC1 [Example 3.3, 3-[6-{[(1R)-1-cyclobutylethyl]amino}-7-(spiro[2.5]oct-6-ylmethyl)-7H-purin-2-yl]-1,2,4-oxadiazol-5(4H)-one]
IC50 (Table 3): 1430 nM

C[C@H]1CC[C@H](Cn2cnc3nc(-c4noc(=O)[nH]4)nc(-c4cc(Cl)cc(N5CCCC5)c4)c32)CC1 [Example 2.18, 3-{6-(3-chloro-5-pyrrolidin-1-ylphenyl)-7-[(trans-4-methylcyclohexyl)methyl]-7H-purin-2-yl}-1,2,4-oxadiazol-5(4H)-one]
IC50 (Table 2): 331 nM

C[C@H]1CC[C@H](Cn2cnc3nc(-c4noc(=O)[nH]4)nc(N4CCCC(F)(F)C4)c32)CC1 [Example 1.6, 3-{6-(3,3-difluoropiperidin-1-yl)-7-[(trans-4-methylcyclohexyl)methyl]-7H-purin-2-yl}-1,2,4-oxadiazol-5(4H)-one]
IC50 (Table 1): 820 nM
